Experimental findings from ChEMBL document CHEMBL1201862, “PubChem BioAssay data set” (2004) are described below.

Test systems include M19-MEL; DMS-114; SNB-78; DMS-273; RXF 631; DLD-1; HOP-18; XF498.
What all share (assay): inhibition of tumour cell growth, NCI panel, 48 h

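Protocol summary: plate cells (96-well), add compound at 5 concentrations, incubate 48 h, interpolate endpoints linearly. GI50 marks 50% less growth.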 The source made the active and inactive calls. Rule as the data show it: active = GI50 up to about 1.1 µM and inactive = higher.

`Oc1cc(-c2cccs2)nc2cc3c(cc12)OCO3`: the GI50 in the test with M19-MEL was 3.34 µM (inactive); in the test on DMS-114, 3.93 µM (inactive); in the test on SNB-78, 7.36 µM (inactive); in the test on DMS-273, 3.34 µM (inactive); in the test with RXF 631, 28.2 µM (inactive); in the test with DLD-1, 5.13 µM (inactive). For the same molecule, the results for the GI50 in the test on HOP-18 and in the test with XF498 were > 100 µM (inactive) and 3.54 µM (inactive), respectively.

Regarding `COc1cc(C2=NN(C)C(c3ccc([N+](=O)[O-])o3)C2)cc(OC)c1OC` (stereo not drawn), the GI50 with M19-MEL is 29.8 µM (inactive); with DMS-114 it was 35.6 µM (inactive); in the test with SNB-78, > 100 µM (inactive); in the test on DMS-273, > 100 µM (inactive); with RXF 631, 51.5 µM (inactive); in the test with DLD-1, 48.4 µM (inactive). Also, the GI50 in the test with HOP-18 is > 100 µM (inactive).

For `CC1=C(C(=O)Nc2ccc(C)cc2)C(c2cccc([N+](=O)[O-])c2)C(C(=O)Nc2ccc(C)cc2)=C(C)N1`, the GI50 in the test with M19-MEL was 20.8 µM (inactive); in the test on DMS-114, 22.5 µM (inactive); with SNB-78, 27.4 µM (inactive); with DMS-273, 28.6 µM (inactive); with RXF 631, 17.2 µM (inactive); in the test on DLD-1 it was 31.6 µM (inactive). For the same molecule, the GI50 with HOP-18 is 14.1 µM (inactive); with XF498, 17.8 µM (inactive).

For `CC1=C(C(=O)Nc2ccc([N+](=O)[O-])cc2)C(c2ccccc2O)C(C(=O)Nc2ccc([N+](=O)[O-])cc2)=C(C)N1`, the GI50 was 20.5 µM (inactive) in the test on M19-MEL; 15.3 µM (inactive) in the test on DMS-114; 30.5 µM (inactive) with SNB-78; 23.3 µM (inactive) in the test with DMS-273; 15.4 µM (inactive) with RXF 631; 18.5 µM (inactive) with DLD-1. For the same molecule, the GI50 in the test on XF498 is 13.6 µM (inactive).

For `Cc1cc(N(CCC#N)CCC#N)ccc1/N=N/c1ccccc1[N+](=O)[O-]`, the GI50 with M19-MEL, in the test on DMS-114, in the test with SNB-78, in the test with DMS-273, in the test on RXF 631 and in the test with DLD-1 was > 100 µM (inactive) throughout. Besides, the GI50 with HOP-18 was > 100 µM (inactive); in the test with XF498, 26.8 µM (inactive).

In the case of `COc1c(OC(C)=O)cc2c(OC(C)=O)c1CC(C)CC(OC)C(O)C(C)/C=C(\C)C(OC(N)=O)C(OC)/C=C\C=C(/C)C(=O)N2` (stereo not drawn), the GI50 with M19-MEL was > 76.4 µM (inactive); with DMS-114, > 64.7 µM (inactive); with SNB-78 it was > 100 µM (inactive); in the test with DMS-273, > 70.1 µM (inactive); in the test with RXF 631, > 100 µM (inactive); with DLD-1 it was > 49.8 µM (inactive). Further, the GI50 in the test with HOP-18 is > 100 µM (inactive); in the test on XF498, > 90.4 µM (inactive).

Regarding `O=C(O)/C(Cl)=C(\Cl)C(=O)Nc1ccccc1`, the GI50 with M19-MEL, with SNB-78, in the test with DMS-273, in the test on RXF 631, in the test on DLD-1 and in the test with HOP-18 was > 100 µM (inactive) each time.

Regarding `COc1cc([C@@H]2c3cc4c(cc3[C@@H](NCc3ccc(C#N)cc3)C3COC(=O)[C@@H]32)OCO4)cc(OC)c1O` (stereo partly drawn), the GI50 with M19-MEL is 1.82 µM (inactive); with DMS-114 it was 1.2 µM (inactive); with SNB-78 it was 4.74 µM (inactive); in the test with DMS-273 it was 0.326 µM (active); with DLD-1 it was 1.33 µM (inactive); with HOP-18, 95.3 µM (inactive). Besides, the GI50 in the test with XF498 is 0.278 µM (active).

With `COc1cc(C(=O)N2CCc3c([nH]c4c([N+](=O)[O-])c(OC)ccc34)C2C)cc(OC)c1OC` (stereo not drawn), the GI50 in the test with DMS-114 is > 100 µM (inactive); with SNB-78, 58.7 µM (inactive); with DMS-273 it was > 100 µM (inactive); with RXF 631 it was 79.6 µM (inactive); with DLD-1, > 100 µM (inactive).

As for `NNC(=O)N/N=C1\CN(c2ccc(Cl)cc2Cl)C(=O)C(=O)C1c1nc2ccccc2o1` (stereo not drawn), the GI50 with M19-MEL is > 100 µM (inactive); in the test on DMS-114, > 100 µM (inactive); in the test on SNB-78 it was 39.1 µM (inactive); in the test on DMS-273, > 100 µM (inactive); in the test with RXF 631 it was > 100 µM (inactive); in the test with DLD-1 it was > 100 µM (inactive). For the same molecule, in the test with XF498, the GI50 is > 100 µM (inactive).

In the case of `O=[N+]([O-])c1ccc(Cl)c(C2CC(c3cccc4ccccc34)=Nc3ccccc3[S+]2[O-])c1` (stereo not drawn), the GI50 with M19-MEL is 20.6 µM (inactive); in the test on DMS-114, 14.9 µM (inactive); in the test on SNB-78, 11.4 µM (inactive); in the test with DMS-273, 19.2 µM (inactive); in the test on RXF 631, 29.4 µM (inactive); in the test with DLD-1, 9.55 µM (inactive). In the test with HOP-18, the GI50 is 24.2 µM (inactive).

Consider `CC(C)(C)c1nc2c(o1)/C(=N\c1ccccc1)c1ccccc1C2=O`, for which the GI50 in the test on M19-MEL was 0.718 µM (active); in the test with SNB-78, 4.27 µM (inactive); in the test with DMS-273, 3.71 µM (inactive); in the test on RXF 631, 22.5 µM (inactive); with DLD-1, 4.14 µM (inactive); in the test on HOP-18, 9.53 µM (inactive). Further, the GI50 in the test on XF498 was 3.68 µM (inactive).

Consider `CCOCc1cc(=O)c2cc3c(cc2o1)OC(C)(C)CC3`, for which the GI50 in the test with M19-MEL is > 100 µM (inactive); with DMS-114, 62.7 µM (inactive); in the test with SNB-78 it was > 100 µM (inactive); with DMS-273, 48.5 µM (inactive); in the test on RXF 631 it was > 100 µM (inactive); with DLD-1 it was > 100 µM (inactive). The GI50 in the test with HOP-18 and with XF498 was > 100 µM (inactive) throughout.

`NCCNCc1c2ccccc2c(CNCCN)c2ccccc12`: the GI50 was 14.8 µM (inactive) with M19-MEL; 11.6 µM (inactive) with DMS-114; 12.7 µM (inactive) in the test with SNB-78; 45.7 µM (inactive) in the test with RXF 631; 53.1 µM (inactive) in the test on DLD-1; 25.7 µM (inactive) in the test with HOP-18.

Consider `CS(=O)(=O)OCCn1cnc2nc(NC(=O)c3ccccc3)[nH]c(=O)c21`, for which the GI50 in the test on M19-MEL, in the test on DMS-114, with SNB-78, in the test on DMS-273, in the test with RXF 631 and in the test with DLD-1 was > 100 µM (inactive) in each case. Besides, the GI50 in the test on HOP-18 was > 100 µM (inactive).

Regarding `Cc1ccc(Nc2nc(C)c(C(/C=C/c3ccc(/C=C/C(=N/NC(=O)C[n+]4ccccc4)c4sc(Nc5ccc(C)cc5[N+](=O)[O-])nc4C)cc3)=N\NC(=O)C[n+]3ccccc3)s2)c([N+](=O)[O-])c1`, the GI50 in the test with M19-MEL was > 100 µM (inactive); in the test on DMS-114 it was 92.9 µM (inactive); in the test on SNB-78 it was 91.2 µM (inactive); with DMS-273, > 100 µM (inactive); in the test on RXF 631 it was > 100 µM (inactive); in the test on DLD-1 it was 71.3 µM (inactive). Besides, the GI50 in the test on HOP-18 was 7.96 µM (inactive).
